We go through nine compounds from paper PMC12163635, “Synthetic Retinoids for the Modulation of Genomic and Nongenomic Processes in Neurodegenerative Diseases” (ACS Omega, 2025).

For one assay, the target named is T1, RARγ (Homo sapiens, UniProt P13631).
T1 construct: His6-3C-SUMO (cleaved yes); made in house; host or cells: E. coli BL21(DE3), pOPINS3C vector
T1 sequence (P13631 185-419 limits assumed): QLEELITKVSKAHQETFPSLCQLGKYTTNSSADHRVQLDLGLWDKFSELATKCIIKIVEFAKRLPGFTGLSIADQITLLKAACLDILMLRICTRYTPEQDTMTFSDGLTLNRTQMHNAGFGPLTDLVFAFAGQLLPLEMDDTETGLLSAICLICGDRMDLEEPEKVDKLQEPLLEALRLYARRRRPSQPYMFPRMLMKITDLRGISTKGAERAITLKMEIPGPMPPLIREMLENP
Nature of the assay: Fluorescence competition binding assay (displacement of DC271). To be noted: for Kd / Binding KD (± SD) RARγ: 100 nM RAR and DC271 on plate; for Kd: read-out: Binding KD (± SD) RARγ; for ΔGEXP RARγ: experimental binding free energy from K D, ΔGexp=−RT ln K, 298.1 K. The procedure:
Fluorescence competition assays were employed to determine the relative binding affinities of each synthetic retinoid toward the LBD of the RARs. The assay is based on the potential for competitive displacement of the inherently fluorescent retinoid DC271 from the LBP by a test nonfluorescent synthetic retinoid. Changes in the fluorescence were measured following the addition of a serial dilution of the test compound and the results were plotted to generate a binding curve. […] Assays were performed for both RARα and RARγ. […] Nonlinear least-squares regression analyses were performed to calculate binding affinities and reported as binding K D, the equilibrium dissociation constant between the RAR isoform and the test synthetic retinoid.
RARα/γ proteins were expressed in BL21(DE3) cells (NEB) transformed into pET50b (Novagen) and pOPINS3C vectors, respectively, carrying the gene construct and containing a His6-3C-NusA tag or His6-3C-SUMO tag used for solubility. Transformations were carried out under standard conditions using Quick Transformation Protocol (New England Biolabs). Successful transformants were grown overnight in 2xYT media (Melford) and frozen for storage at −80 °C in 50% glycerol. Expression cultures were inoculated from glycerol stocks into 25 mL of 2xYT media (Melford) with 50 μg/mL kanamycin or 100 μg/mL ampicillin (Sigma-Aldrich) and grown overnight with shaking (37 °C, 150 rpm). The overnight cultures were transferred into 1 L expression flasks (2xYT/ampicillin 100 μg/mL or 2xYT/kanamycin 50 μg/mL) and grown with shaking at 37 °C, 150 rpm. Induction was carried out at an OD600 of 0.6–0.8, with 1 mL of 1 M IPTG (1 mM in culture), before shaking overnight (20 h) at 18 °C. The resulting cultures were spun down into pellets using an Avanti Hi-Speed centrifuge (JLA 8.1000, 4000 rpm, 30 min, 4 °C), before the supernatant was removed and the bacterial pellet were frozen at −80 °C.
RARα/γ (pET50b or pOPINS3C, BL21(DE3) (NEB)) were resuspended from pellet with 20 mL Wash Buffer (20 mM Tris-HCl, 300 mM NaCl and 20 mM imidazole, pH 8) and the resulting suspension was sonicated on ice (40% power, 2 min, repeated twice with 1 min rest in-between) before centrifuging (Avanti Hi-Speed JA25.50, 20,000 rpm, 1 h, 4 °C). Supernatants were clarified using 0.45 μm syringe filters (Thermo Fisher Scientific). Affinity chromatography and size-exclusion (SEC) chromatography were carried out on AKTA Pure25 (Cytiva). Supernatants were loaded onto the HisTrap HP column (5 mL, Cytiva) and washed using 25 mL of wash Buffer. The column was washed with Wash Buffer until UV trace returned to baseline, before RARα/γ was eluted using a gradient of Elution Buffer (20 mM Tris-HCl, 300 mM NaCl, 500 mM imidazole pH 8). The resulting protein-containing fractions were analyzed by SDS-PAGE (200 V, 30 min) using SurePAGE Bis-Tris 12% precast gels (Genscript). Protein concentrations were estimated using absorbance at 280 nm on a DS-11 spectrophotometer (Denovix) with calculated molecular weights and extinction coefficients (Expasy). RAR proteins were cleaved overnight from 3C-NusA tag or 3C-SUMO-His tag using 1 Unit/100 μg protein of HRV3C protease (Thermo Fisher Scientific) at 4 °C. Solution after digestion was loaded onto a HiLoad 16/600 Superdex 75 prep-grade column (Cytiva) and cleaved RARα/γ was separated from the tag based on molecular weight and eluted from the column using SEC Buffer (20 mM Tris-HCl, 300 mM NaCl and 0.5 mM TCEP, pH 8) into 2 mL fractions. The resulting protein fractions were analyzed by SDS PAGE (200 V, 30 min) using SurePAGE Bis-Tris 12% precast gels (Genscript), before being concentrated to 5 mg/mL using centrifugal concentrators (Sartorius) and frozen at −80 °C in small aliquots for use in binding assays.

A further assay deals with SH-SY5Y cells. In words: Neurite outgrowth. Type of assay: cell-based, human. The conditions noted are these: for induction of neurite outgrowth compared with ATRA: 10 nM; for fold induction at 0.01 µM: Homo sapiens, SH-SY5Y, 120 h, read-out: fold increase in neurite outgrowth. The procedure:
Following the characterization of retinoids for their genomic and nongenomic activities, the ability of retinoids to differentiate and induce neurite outgrowth in the neuroblastoma cell line, SH-SY5Y cells, was examined (Figure ). Neurite outgrowth can be induced in this cell line by ATRA at 10 μM.
SH-SY5Y cell line as used in ERK phosphorylation and neurite outgrowth assays described below. The cells were grown in DMEM containing 10% FCS at 37 °C with 5% CO2. The medium was changed three times a week and the cells were passaged at 70% confluence using 0.05% trypsin-EDTA.
SH-SY5Y cells were plated at 10,000 cells/well in 12-well plates containing 16 mm acid-treated/poly L-lysine-coated glass coverslips. After 24 h, retinoids were added to the medium and tested at two different concentrations, 10 μM and 10 nM, with a final DMSO concentration of 0.01 or 0.0001%, respectively. The plates were incubated for 5 days at 5% CO2/37 °C. All retinoid concentrations were tested in triplicate. Cells were fixed using 4% paraformaldehyde and stained for β-III tubulin (1:1000; Sigma). For each neurite outgrowth experiment, 3 coverslips (in 3 wells) were used. ImageJ software with the NeuronJ plugin was used to quantify neurite outgrowth on stained cells in each of the 10 randomly selected images of each coverslip taken using a Nikon Eclipse E400 fluorescence microscope. The average neurite length was calculated for each image by dividing total neurite length by the total number of neurites per image.
All data are presented as mean ± SEM of three independent experiments with biological triplicates. Statistical analyses were performed in Microsoft Office Excel 2019 or GraphPad Prism 7.0c version (Prism, GraphPad Software, San Diego, CA). Neurite outgrowth data were analyzed by one-way ANOVA with Newman-Keuls multiple comparison test as appropriate; P value <0.05 was considered statistically significant. *P < 0.05, **P < 0.01. Data for X-Gal and ERK1/2 phosphorylation were analyzed using sigmoidal dose–response analysis of log (agonist) versus response curve (stimulation).

Where [1] appears, read: 10 nM compound, 5 days, in comparison to nontreated cells.

Entries after “also recorded” stand apart in the source; their conditions may differ. Like-named read-outs stand apart in the source and are kept apart here.

In the case of `Cc1cc2c(cc1C#Cc1ncc(C(=O)O)cn1)C(C)(C)CCC2(C)C` [Compound 28, 2-[2-(3,5,5,8,8-Pentamethyl-5,6,7,8-tetrahydronaphthalen-2-yl)ethynyl]pyrimidine-5-carboxylic Acid], on RARγ, the Kd (in general, the constant that tells how readily two partners part at equilibrium) worked out at 750 nM and the “ΔGEXP RARγ” value was -8.36 kcal/mol. For the same compound, the “induction of neurite outgrowth compared with ATRA” value (“induction … compared with ATRA” below) in the assay with SH-SY5Y cells (5 days) is reported as “induced neurite outgrowth but not significantly compared to ATRA”.
On to `COc1cc2c(cc1C#Cc1ncc(C(=O)O)cn1)C(C)(C)CCC2(C)C` [Compound 29, 2-[2-(3-Methoxy-5,5,8,8-tetramethyl-5,6,7,8-tetrahydronaphthalen-2-yl)ethynyl]pyrimidine-5-carboxylic Acid], for which, at RARγ, the “Binding KD (± SD) RARγ” value is “noncompetitive binding” and the “ΔGEXP RARγ” value is “Non-competitive Binding”. The “induction … compared with ATRA” value in the assay with SH-SY5Y cells (5 days) is reported as “induced neurite outgrowth but not significantly compared to ATRA”.
With `CC1(C)CCC(C)(C)c2nc(C#Cc3ccc(C(=O)O)cc3)cnc21` [Compound 30, 4-[2-(5,5,8,8-Tetramethyl-5,6,7,8-tetrahydroquinoxalin-2-yl)ethynyl]benzoic Acid], at RARγ, the Kd was 217 nM and the “ΔGEXP RARγ” value is -9.09 kcal/mol. The “induction … compared with ATRA” value in the assay on SH-SY5Y cells (5 days) is “significantly induced neurite outgrowth compared to ATRA; also recorded: even higher activity compared to EC23 and GZ25”. In the assay with SH-SY5Y cells (setting [1]), the fold induction at 0.01 µM was 2.3.
For `CC1(C)CCC(C)(C)c2nc(C#Cc3ccc(C(=O)O)cc3F)cnc21` [Compound 31, 3-Fluoro-4-[2-(5,5,8,8-tetramethyl-5,6,7,8-tetrahydroquinoxalin-2-yl)ethynyl]benzoic Acid], at RARγ, the Kd was 142 nM and the “ΔGEXP RARγ” value is -9.38 kcal/mol. In addition, the “induction … compared with ATRA” value in the assay on SH-SY5Y cells (5 days) is on record as “induced neurite outgrowth but not significantly compared to ATRA”.
As for `Cc1sc(-c2ccc(C(=O)O)cc2)nc1-c1cnc2c(n1)C(C)(C)CCC2(C)C` [Compound 40, 4-[5-Methyl-4-(5,5,8,8-tetramethyl-5,6,7,8-tetrahydroquinoxalin-2-yl)-1,3-thiazol-2-yl]benzoic Acid], on RARγ, the Kd is 655 nM and the “ΔGEXP RARγ” value was -8.44 kcal/mol. Besides, in the assay on SH-SY5Y cells (setting [1]), the fold induction at 0.01 µM turned out to be 1.9.
In the case of `Cc1sc(-c2ccc(C(=O)O)cn2)nc1-c1cnc2c(n1)C(C)(C)CCC2(C)C` [Compound 41, 6-[5-Methyl-4-(5,5,8,8-tetramethyl-5,6,7,8-tetrahydroquinoxalin-2-yl)-1,3-thiazol-2-yl]pyridine-3-carboxylic Acid], on RARγ, the “Binding KD (± SD) RARγ” value is reported as “noncompetitive binding” and the “ΔGEXP RARγ” value is “Non-competitive Binding”. Moreover, the fold induction at 0.01 µM in the assay with SH-SY5Y cells (setting [1]) was found to be 1.7.
On to `Cc1sc(-c2ccc(C(=O)O)c(F)c2)nc1-c1cnc2c(n1)C(C)(C)CCC2(C)C` [Compound 42, 2-Fluoro-4-[5-methyl-4-(5,5,8,8-tetramethyl-5,6,7,8-tetrahydroquinoxalin-2-yl)-1,3-thiazol-2-yl]benzoic Acid], for which, at RARγ, the Kd was 133 nM and the “ΔGEXP RARγ” value was -9.46 kcal/mol. The fold induction at 0.01 µM in the assay with SH-SY5Y cells (setting [1]) amounted to 1.7.
Taken in the same sequence, the figures for `Cc1sc(-c2ccc(C(=O)O)cc2F)nc1-c1cnc2c(n1)C(C)(C)CCC2(C)C` [Compound 43, 3-Fluoro-4-[5-methyl-4-(5,5,8,8-tetramethyl-5,6,7,8-tetrahydroquinoxalin-2-yl)-1,3-thiazol-2-yl]benzoic Acid] were 2710 nM, -7.74 kcal/mol and 1.8.
Regarding `Cc1sc(-c2ccc(C(=O)O)cc2)nc1-c1ccc2c(c1)C(C)(C)CCC2(C)C` [GZ25, reference compound], at RARγ, the Kd stood at 335 nM and the “ΔGEXP RARγ” value is -8.84 kcal/mol. Moreover, the “induction … compared with ATRA” value in the assay with SH-SY5Y cells (5 days) was “induced significant neurite outgrowth compared to ATRA”. Also, in the assay with SH-SY5Y cells, the fold induction at 0.01 µM was 1.8.
